These results are taken from US12371454B2, “Cyclic peptide compound having Kras inhibitory action” (priority 2019, dated 2025).

Positions of bridges follow the written chain, without caps; N, C: chain ends. Non-standard residues stand in square brackets, D forms with d. Residues, ends and D or L forms follow the SMILES beside them. *: point of attachment. hPhe(3-Cl-4-CF3) = N[C@@H](CCc1ccc(C(F)(F)F)c(Cl)c1)C(=O)O; NMePhe(4-Me) = CN[C@@H](Cc1ccc(C)cc1)C(=O)O; NMeGly(cPent) = CN[C@H](C(=O)O)C1CCCC1; NMeCha = CN[C@@H](CC1CCCCC1)C(=O)O; NMeChg = CN[C@H](C(=O)O)C1CCCCC1; NMeI = CC[C@H](C)[C@H](NC)C(=O)O; NMeD = CN[C@@H](CC(=O)O)C(=O)O; NMeL = CN[C@@H](CC(C)C)C(=O)O; NMeV = CN[C@H](C(=O)O)C(C)C; d(β3hA) = C[C@@H](N)CC(=O)O; NMeAbu = CC[C@H](NC)C(=O)O; NMeA = CN[C@@H](C)C(=O)O; Piperidide = C1CCN(*)CC1; Pyrrolidide = C1CCN(*)C1; Ac5c = NC1(C(=O)O)CCCC1; Aze = O=C(O)[C@@H]1CCN1; Aib = CC(C)(N)C(=O)O; Cyclopropyl = C1CC1*; Sar = CNCC(=O)O

The target of assay [1] is T1, Kras and SOS1 (biotin-tagged human Kras loaded with GDP, His-tagged human SOS1) (Homo sapiens, UniProt P01116, G12D).
T1 construct: made in house; host or cells: E. coli (stated for Kras only)
Briefly: Protein-protein interaction inhibition between Kras and SOS1 (KrasGl2D-SOS PPI) using AlphaScreen. The format is binding. The note with it: AlphaScreen; biotin-tagged human Kras loaded with GDP, His-tagged human SOS1; read-out: KRAS G12D-SOS PPI IC50. In short, it runs like this:
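Read-out is acceptor-bead light at 520-620 nm, arising when 680 nm-irradiated nickel donor beads pass singlet oxygen to streptavidin acceptors. The bead pair links His-tagged SOS1 with biotin-tagged, GDP-bound Kras from E. coli.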
A general note: Alpha assays give light when donor and acceptor beads are brought close together.

Assay [2] has as its system Human pancreatic cancer cell line AsPC-1. Briefly: Measurement of AsPC-1 cell growth inhibition (AsPC-1 CGI). The format is cell-based. Conditions: 96 h. In short, it runs like this:
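AsPC-1 cells in 15% FBS RPMI-1640 were exposed to test compound for 96 hours at 37° C, with CellTiter-Glo as endpoint.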

T1 sequence (P01116 1-188 isoform P01116-2 G12D): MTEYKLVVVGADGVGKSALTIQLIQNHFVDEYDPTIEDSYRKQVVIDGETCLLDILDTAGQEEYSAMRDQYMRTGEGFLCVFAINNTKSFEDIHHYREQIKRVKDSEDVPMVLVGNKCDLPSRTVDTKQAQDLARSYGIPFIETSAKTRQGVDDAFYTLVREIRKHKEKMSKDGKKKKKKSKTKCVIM

With `CC[C@H](C)[C@@H]1NC(=O)[C@H](CC(C)C)N(C)C(=O)C[C@@H](C(=O)N2CCCCC2)N(C)C(=O)[C@H](C(C)C)N(C)C(=O)C(C)(C)NC(=O)[C@@H]2CCCN2C(=O)[C@H](CCc2ccc(C(F)(F)F)c(Cl)c2)NC(=O)CN(C)C(=O)[C@H](CC2CCCCC2)N(C)C(=O)[C@@H]2CCN2C(=O)[C@H](C)N(C)C1=O` [Compound 1751] ([NMeL]I[NMeA][Aze][NMeCha][Sar][hPhe(3-Cl-4-CF3)]P[Aib][NMeV][NMeD]-Piperidide; lactam N-11), the IC50 (commonly the point on the concentration scale where inhibition reaches its midpoint) in assay [1] was 0.0073 µM; in assay [2], 0.1 to 0.5 µM.
The matching figures for `CC[C@H](C)[C@@H]1NC(=O)[C@H](CC(C)C)N(C)C(=O)C[C@@H](C(=O)N2CCCC2)N(C)C(=O)[C@H](C2CCCCC2)N(C)C(=O)C2(CCCC2)NC(=O)[C@@H]2CCCN2C(=O)[C@H](CCc2ccc(C(F)(F)F)c(Cl)c2)NC(=O)CN(C)C(=O)[C@H](CC2CCCCC2)N(C)C(=O)CN(C)C(=O)CN(C)C1=O` [Compound 1757] ([NMeL]I[Sar][Sar][NMeCha][Sar][hPhe(3-Cl-4-CF3)]P[Ac5c][NMeChg][NMeD]-Pyrrolidide; lactam N-11): 0.00043 µM and 0.02 to 0.05 µM.
The matching figures for `CC[C@H](C)[C@@H]1NC(=O)[C@H](CC(C)C)N(C)C(=O)C[C@@H](C(=O)N2CCCC2)N(C)C(=O)[C@H](C2CCCC2)N(C)C(=O)C2(CCCC2)NC(=O)[C@@H]2CCCN2C(=O)[C@H](CCc2ccc(C(F)(F)F)c(Cl)c2)NC(=O)CN(C)C(=O)[C@H](Cc2ccc(C)cc2)N(C)C(=O)CN(C)C(=O)CN(C)C1=O` [Compound 1761] ([NMeL]I[Sar][Sar][NMePhe(4-Me)][Sar][hPhe(3-Cl-4-CF3)]P[Ac5c][NMeGly(cPent)][NMeD]-Pyrrolidide; lactam N-11): 0.00041 µM and 0.02 to 0.05 µM.
In the case of `CC[C@H](C)[C@@H]1NC(=O)[C@H](CC(C)C)N(C)C(=O)C[C@@H](C(=O)N(C)C)N(C)C(=O)[C@H](C2CCCCC2)N(C)C(=O)C2(CCCC2)NC(=O)[C@@H]2CCCN2C(=O)[C@H](CCc2ccc(C(F)(F)F)c(Cl)c2)NC(=O)CN(C)C(=O)[C@H](Cc2ccc(C)cc2)N(C)C(=O)CN(C)C(=O)CN(C)C1=O` [Compound 1762] ([NMeL]I[Sar][Sar][NMePhe(4-Me)][Sar][hPhe(3-Cl-4-CF3)]P[Ac5c][NMeChg][NMeD]-NMe2; lactam N-11), the IC50 in assay [1] is 0.00037 µM; in assay [2], 0.02 to 0.05 µM.
In the case of `CC(C)C[C@H]1C(=O)N[C@@H](COC2CC2)C(=O)N(C)CC(=O)N(C)CC(=O)N(C)[C@@H](CC2CCCCC2)C(=O)N(C)CC(=O)N[C@@H](CCc2ccc(C(F)(F)F)c(Cl)c2)C(=O)N2CCC[C@H]2C(=O)NC2(CCCC2)C(=O)N(C)[C@@H](C2CCCCC2)C(=O)N(C)[C@H](C(=O)N2CCCCC2)CC(=O)N1C` [Compound 1766] ([NMeL]S(Cyclopropyl)[Sar][Sar][NMeCha][Sar][hPhe(3-Cl-4-CF3)]P[Ac5c][NMeChg][NMeD]-Piperidide; lactam N-11), the IC50 in assay [1] is 0.0036 µM; in assay [2] it was 0.1 to 0.5 µM.
The corresponding values for `CC[C@H](C)[C@@H]1NC(=O)[C@H](CC)N(C)C(=O)C[C@@H](C(=O)N2CCCCC2)N(C)C(=O)[C@H](C2CCCCC2)N(C)C(=O)C2(CCCC2)NC(=O)[C@@H]2CCCN2C(=O)[C@H](CCc2ccc(C(F)(F)F)c(Cl)c2)NC(=O)CN(C)C(=O)[C@H](CC2CCCCC2)N(C)C(=O)CN(C)C(=O)CN(C)C1=O` [Compound 1770] ([NMeAbu]I[Sar][Sar][NMeCha][Sar][hPhe(3-Cl-4-CF3)]P[Ac5c][NMeChg][NMeD]-Piperidide; lactam N-11) are 0.00071 µM and 0.05 to 0.1 µM.
With `CC[C@H](C)[C@@H]1NC(=O)[C@H](CC(C)C)N(C)C(=O)C[C@@H](C)NC(=O)[C@H]([C@@H](C)CC)N(C)C(=O)C2(CCCC2)NC(=O)[C@@H]2CCCN2C(=O)[C@H](CCc2ccc(C(F)(F)F)c(Cl)c2)NC(=O)CN(C)C(=O)[C@H](Cc2ccc(C)cc2)N(C)C(=O)CN(C)C(=O)CN(C)C1=O` [Compound 1774] (cyclo([Ac5c][NMeI][d(β3hA)][NMeL]I[Sar][Sar][NMePhe(4-Me)][Sar][hPhe(3-Cl-4-CF3)]P)), the IC50 in assay [1] was 0.00084 µM; in assay [2] it was 0.1 to 0.5 µM.
